Experimental data taken from US20210106687A1, “BOLAAMPHIPHILIC COMPOUNDS, COMPOSITIONS AND USES THEREOF” (Lauren Sciences LLC, priority 2012, published 2021).

Tests used:
b.End3 cells [1] = assay: Internalization of CF by the cells in vitro, confocal fluorescence microscopy; format: cell-based, mouse; conditions: 5 h at 37° C.; FIG. 4
Procedure: b.End3 cells were grown on 24-well plates or on coverslips (for FACS and fluorescence microscopy analysis, respectively). The medium was replaced with culture medium without serum and CF solution, or tested bolavesicles (equivalent to 0.5 μg/mL CF), or equivalent volume of the medium were added to the cells and incubated for 5 hr at 4° C. or at 37° C. At the end of the incubation, cells were extensively washed with complete medium and with PBS, and were either detached from the plates using trypsin-EDTA solution (Biological Industries Ltd., Beit Haemek, Israel) and analyzed by FACS (FACSCalibur Flow Cytometer, BD Biosciences, USA), or fixed with 2.5% formaldehyde in PBS, washed twice with PBS, mounted on slides using Mowiol-based mounting solution and analyzed using a FV1000-IX81 confocal microscope (Olympus, Tokyo, Japan) equipped with 60× objective. All the images were acquired using the same imaging settings and were not corrected or modified.

b.End3 cells [2] = assay: Internalization of CF by the cells in vitro, FACS; format: cell-based, mouse; conditions: equivalent to 0.5 μg/mL CF
Procedure: b.End3 immortalized mouse brain capillary endothelium cells were kindly provided by Prof Philip Lazarovici (Institute for Drug Research, School of Pharmacy, The Hebrew University of Jerusalem, Israel). The b.End3 cells were cultured in DMEM medium supplemented with 10% fetal bovine serum, 2 mM L-Glutamine, 100 IU/mL penicillin and 100 μg/mL streptomycin (Biological Industries Ltd., Beit Haemek, Israel). The cells were maintained in an incubator at 37° C. in a humidified atmosphere with 5% CO2.
All the images were acquired using the same imaging settings and were not corrected or modified.
The inventors investigated whether this trend is still apparent in the interaction of magnetic and non-magnetic bolavesicles with brain capillary endothelial cells. To this end, the inventors used murine b.End3 cells, which are one of the most extensively used cell lines for brain uptake and permeability studies^25. […] Previously, the inventors extensively used ^b.End3 cells to analyze uptake and intracellular fate of bolavesicles encapsulating model proteins and marker compounds^8.

## carboxyfluorescein [CF]
b.End3 cells [1]
  Endocytosis of CF by b.End3 cells (confocal microscopy): endocytosed by the bEnd.3 cells only when encapsulated within the bolavesicles
b.End3 cells [2]; 5 hr at 4° C.
  Internalization by b.End3 cells (FACS): not able to internalize
b.End3 cells [2]; 5 hr at 37° C.
  Internalization by b.End3 cells (FACS): not able to internalize
